pIC50: −log10 of the molar value. Where two headings read alike, the source gives them in different places.
Columns and labels:
[1] = target: T1, CysLT1 (Cavia porcellus, UniProt Q2NNR5); assay: CysLT1/LTD4 radioligand binding assay ([3H]LTD4, guinea-pig lung membrane preparation); conditions: 300 pM [3H]LTD4, guinea-pig lung membranes, 30 minutes at room temperature
T1 construct: The assay mixture also contained 200 μg of lung membrane protein/plate well; from tissue; host or cells: guinea-pig lung (primarily parenchyma) membrane preparation
T1 sequence (Q2NNR5 1-340): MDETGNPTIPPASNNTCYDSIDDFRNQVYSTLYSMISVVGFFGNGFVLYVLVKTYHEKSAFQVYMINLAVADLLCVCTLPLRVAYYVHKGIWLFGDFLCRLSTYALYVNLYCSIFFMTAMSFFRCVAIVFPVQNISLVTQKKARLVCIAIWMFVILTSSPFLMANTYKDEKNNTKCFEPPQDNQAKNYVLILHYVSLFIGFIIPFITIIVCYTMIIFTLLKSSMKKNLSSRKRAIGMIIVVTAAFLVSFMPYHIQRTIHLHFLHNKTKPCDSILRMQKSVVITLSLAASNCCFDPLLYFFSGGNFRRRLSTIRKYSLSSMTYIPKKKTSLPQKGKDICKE
Protocol: CysLT1/LTD4 Binding Protocol (Guinea-Pig Lung Membrane Preparation)
Guinea pigs were sacrificed and lung tissues removed. Connective tissue, trachea, large blood vessels and major airways were removed and the remaining tissue, primarily parenchyma, was homogenised in 20 volumes of 10 mM TRIS pH 7.4 containing 0.25M sucrose, 0.25 mM phenylmethylsulfonyl fluoride, 155 μg/ml benzenecarboximide, 5 μg/ml soybean trypsin inhibitor and 100 μg/ml bacitracin (Work Buffer), in a ULTRA-TURRAX T25 at 13500 rpm. The homogenate was centrifuged at 1000×g for 10 minutes at 4° C. The resulting supernatant was filtered through a sterile cloth and further centrifuged for 15 minutes at 40000×g at 4° C. The pellet obtained was resuspended in 10 volumes of Work Buffer, homogenised using a Potter (1100 rpm) and subjected to a final centrifugation step for 30 minutes at 40000×g at 4° C. This membrane pellet was finally resuspended in 10 volumes of 10 mM TRIS and 10 mM PIPES pH 7.4, and homogenised using a Potter (1100 rpm). Protein concentration was determined by the BRADFORD method using the Bio-Rad Protein Assay kit with BSA as standard. Protein aliquots were kept frozen at −80° C.
Radioligand Binding Assay
[^3H]LTD4 (136.9 Ci/mmol) was obtained from NEN.
The assays were performed in a final volume of 250 μl of 10 mM PIPES pH 7.5 containing 10 mM CaCl2, 10 mM MgCl2, 50 mM NaCl, 2 mM L-Cysteine, 2 mM Glycine and 300 pM [^3H]LTD4. The assay mixture also contained 200 μg of lung membrane protein/plate well. Non-specific binding was determined in the presence of zafirlukast 10 μM.
The assays were performed directly on Millipore Multiscreen GF/B plates, presoaked with 200 μl/well of assay buffer at room temperature. Incubations were conducted for 30 minutes at room temperature with continuous shaking. Separation of bound and free [^3H]LTD4 was done by filtration through the plates that were then washed three times with 175 μl/wash of 10 mM TRIS containing 100 mM NaCl at 4° C. The plates were dried and counted in a TRILUX Microbeta Liquid Scintillation Counter of Wallac.

[2] = tested on: LTD4-induced airway microvascular leakage; assay: LTD4-induced microvascular permeability in guinea-pigs (Evans blue extravasation in trachea); type: in vivo, guinea pig; conditions: oral gavage 4 hours before, LTD4 1 μg/kg i.v., male Dunkin-Hartley guinea pigs
Protocol: LTD4-Induced Microvascular Permeability in Guinea-Pigs
Male Dunkin-Hartey guinea pigs (450-500 g) fasted for 18 hours were administered the test compounds by oral gavage 4 hours before being anesthetized with urethane (15%, i.p. 10 ml/kg). The left jugular vein was canulated under anaesthesia. Five minutes afterwards, Evans blue dye (40 mg/Kg) was injected intravenously. After five more minutes, LTD4 was administered (1 μg/kg, i.v.) to the animals in order to induce airway microvascular leakage. After yet another period of 5 minutes, animals were exsanguinated by cutting the right atria and the vascular bed was rinsed by perfusing 50 ml of saline solution through the left ventricle at a pressure of 150 cmH2O. Then the trachea was excised and incubated in formamide for 20 hours at 55° C. to extract the Evans blue dye from the tissue. Microvascular permeability was determined by light spectrophotometry at 620 nm of the extravasated dye.

[3] = Cavia porcellus, read-out: ED50

Compound | pIC50 [1] | ED50 [2, 3] [mg/kg] | ED50 [2] [mg/kg]
CC(C)(CC(=O)O)SC1c2cc(OCc3ccc4cc(F)c(F)cc4n3)ccc2OCc2ncccc21 (stereo not drawn) [Example 9, 3-{(7-[(6,7-difluoroquinolin-2-yl)methoxy]-5,11-dihydro[1]benzoxepino[3,4-b]pyrindin-5-yl)thio}-3methylbutanoic Acid] | 9.23 | 0.018 | 
O=C(O)CSC1c2cc(OCc3ccc4cc(F)c(Cl)cc4n3)ccc2OCc2ncccc21 (stereo not drawn) [Example 3, {(7-[(7-chloro,6-fluoro-quinolin-2-yl)methoxy]-5,11-dihydro[1]benzoxepino[3,4-b]pyrindin-5-yl)thio}acetic Acid] | 9.57 |  | 
O=C(O)CC1(CSC2c3cc(OCc4ccc5cc(F)c(F)cc5n4)ccc3OCc3ncccc32)CC1 (stereo not drawn) [Example 7, 1-{[(7-[(6,7-difluoroquinolin-2-yl)methoxy]-5,11-dihydro[1]benzoxepino[3,4-b]pyrindin-5-yl)thio]methyl}cyclopropyl Acetic Acid] | 9.85 | 0.013 | 
O=C(O)CCSC1c2cc(OCc3ccc4cc(F)c(F)cc4n3)ccc2C=Cc2ncccc21 (stereo not drawn) [Example 33, 3-[7-(6,7-Difluoro-quinolin-2-ylmethoxy)-5H-benzo[4,5]cyclohepta[1,2-b]pyridin-5-ylsulfanyl]-propionic Acid] | 9.30 |  | 
O=C(O)CCSC1c2cc(OCc3ccc4cc(F)c(F)cc4n3)ccc2OCc2ncccc21 (single isomer, unassigned; (+)) [Example 34, (+)-3-[7-(6,7-Difluoro-quinolin-2-ylmethoxy)-5,11-dihydro-10-oxa-1-aza-dibenzo[a,d]cyclohepten-5-ylsulfanyl]-propionic Acid] | 8.92 | 0.018 | 
O=C(O)CSC1c2cc(/C=C/c3ccc4cc(F)c(F)cc4n3)ccc2OCc2ncccc21 (stereo not drawn) [Example 12, {(7-[(E)-2-(6,7-difluoroquinolin-2-yl)vinyl]-5,11-dihydro[1]benzoxepino[3,4-b]pyrindin-5-yl)thio}acetic Acid] | 9.46 |  | 
O=C(O)CC1(CSC2c3cc(/C=C/c4ccc5cc(F)c(F)cc5n4)ccc3OCc3ncccc32)CC1 (stereo not drawn) [Example 11, 1-{[(7-[(E)-2-(6,7-difluoroquinolin-2-yl)vinyl]-5,11-dihydro[1]benzoxepino[3,4-b]pyrindin-5-yl)thio]methyl}cyclopropyl Acetic] | 9.57 | 0.0013 | 
O=C(O)CCSC1c2cc(CCc3ccc4cc(F)c(F)cc4n3)ccc2OCc2cccnc21 (stereo not drawn) [Example 28, 3-{7-[2-(6,7-Difluoro-quinolin-2-yl)-ethyl]-5,11-dihydro-10-oxa-4-aza-dibenzo[a,d]cyclohepten-5-ylsulfanyl}-propionic Acid] | 8.70 |  | 
O=C(O)CC1(CSC2c3cc(/C=C/c4ccc5cc(F)c(F)cc5n4)ccc3C=Cc3ncccc32)CC1 (stereo not drawn) [Example 40, (1-{7-[2-(6,7-Difluoro-quinolin-2-yl)-vinyl]-5H-benzo[4,5]cyclohepta[1,2-b]pyridin-5-ylsulfanylmethyl}-cyclopropyl) Acetic Acid] | 9.30 |  | 
O=C(O)CCSC1c2cc(OCc3ccc4cc(F)c(F)cc4n3)ccc2OCc2ncccc21 (stereo not drawn) [Example 1, 3-{(7-[(6,7-difluoroquinolin-2-yl)methoxy]-5,11-dihydro[1]benzoxepino[3,4-b]pyridin-5-yl)thio}propanoic Acid] | 9.42 | 0.009 | 
O=C(O)CCSC1c2cc(OCc3ccc4cc(F)c(F)cc4n3)ccc2CCc2ncccc21 (stereo not drawn) [Example 24, 3-[7-(6,7-difluoro-quinolin-2-ylmethoxy)-10,11-dihydro-5H-benzo[4,5]cyclohepta[1,2-b]pyridin-5-ylsulfanyl]-propionic Acid] | 9.22 | 0.01 | 
O=C(O)CCSC1c2cc(OCc3ccc4cc(F)c(Cl)cc4n3)ccc2OCc2ncccc21 (stereo not drawn) [Example 4, 3-{(7-[(7-chloro,6-fluoro-quinolin-2-yl)methoxy]-5,11-dihydro[1]benzoxepino[3,4-b]pyrindin-5-yl)thio}propanoic Acid] | 9.55 | 0.03 | 
O=C(O)CCSC1c2ccccc2COc2ccc(OCc3ccc4cc(F)c(Cl)cc4n3)cc21 (stereo not drawn) [Compound A, reference compound] | 9.29 |  | 0.010
O=C(O)CCSC1c2cc(OCc3ccc4cc(F)c(Cl)cc4n3)ccc2CCc2ncccc21 (stereo not drawn) [Example 23, 3-[7-(7-Chloro-6-fluoro-quinolin-2-ylmethoxy)-10,11-dihydro-5H-benzo[4,5]cyclohepta[1,2-b]pyridin-5-ylsulfanyl]-propionic Acid] | 9.47 | 0.002 | 
CC(C)(O)c1ccccc1CC[C@@H](SCC1(CC(=O)O)CC1)c1cccc(/C=C/c2ccc3ccc(Cl)cc3n2)c1 [Compound B, reference compound] |  | 0.008 | 
O=C(O)CCSC1c2cc(OCc3ccc4cc(F)c(F)cc4n3)ccc2OCc2ncccc21 (single isomer, unassigned; (-)) [Example 35, (−)-3-[7-(6,7-Difluoro-quinolin-2-ylmethoxy)-5,11-dihydro-10-oxa-1-aza-dibenzo[a,d]cyclohepten-5-ylsulfanyl]-propionic Acid] | 9.46 |  | 0.009
O=C(O)CCSC1c2ccncc2CCc2ccc(OCc3ccc4cc(F)c(F)cc4n3)cc21 (stereo not drawn) [Example 25, 3-[7-(6,7-Difluoro-quinolin-2-ylmethoxy)-10,11-dihydro-5H-benzo[4,5]cyclohepta[1,2-c]pyridin-5-ylsulfanyl]-propionic Acid] | 9.17 |  | 
CC(C)(CSC1c2cc(OCc3ccc4cc(F)c(F)cc4n3)ccc2OCc2ncccc21)C(=O)O (stereo not drawn) [Example 8, 3-{(7-[(6,7-difluoroquinolin-2-yl)methoxy]-5,11-dihydro[1]benzoxepino[3,4-b]pyrindin-5-yl)thio}-2,2-dimethylpropanoic Acid] | 9.30 |  | 
O=C(O)CCSC1c2cc(OCc3ccc4cc(F)c(Cl)cc4n3)ccc2CCc2ncccc21 (single isomer, unassigned; (+)) [Example 43, (+) 3-[7-(7-Chloro-6-fluoro-quinolin-2-ylmethoxy)-10,11-dihydro-5H-benzo[4,5]cyclohepta[1,2-b]pyridin-5-ylsulfanyl]-propionic Acid] | 8.47 |  | 
O=C(O)CC1(CSC2c3cc(OCc4ccc5cc(F)c(F)cc5n4)ccc3OCc3cccnc32)CC1 (stereo not drawn) [Example 18, 1-{[(9-[(6,7-difluoroquinolin-2-yl)methoxy]-5,11-dihydro[1]benzoxepino[4,3-b]pyrindin-11-yl)thio]methyl}cyclopropyl Acetic Acid] | 9.48 |  | 
